From US20250304644A1, “PEPTIDES TRIPLE AGONISTS OF GIP, GLP-1 AND GLP-2” (BAINAN BIOTECH APS, priority 2021, published 2025) come the findings set out here.

Holding throughout (format): cell-based
One assay addresses T1, human GIPR (Homo sapiens, UniProt P48546).
T1 construct: host or cells: COS-7
T1 sequence (P48546 22-466): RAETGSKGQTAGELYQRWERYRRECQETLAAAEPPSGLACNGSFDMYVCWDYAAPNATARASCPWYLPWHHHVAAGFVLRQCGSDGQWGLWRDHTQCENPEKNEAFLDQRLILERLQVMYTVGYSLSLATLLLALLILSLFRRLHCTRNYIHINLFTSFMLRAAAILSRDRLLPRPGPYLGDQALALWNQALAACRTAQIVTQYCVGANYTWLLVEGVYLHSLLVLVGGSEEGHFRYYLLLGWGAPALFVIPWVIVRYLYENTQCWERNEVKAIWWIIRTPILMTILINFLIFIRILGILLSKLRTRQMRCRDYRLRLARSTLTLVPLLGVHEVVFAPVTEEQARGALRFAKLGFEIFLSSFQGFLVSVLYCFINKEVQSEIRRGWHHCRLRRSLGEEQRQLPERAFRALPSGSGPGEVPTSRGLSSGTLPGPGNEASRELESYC
The assay can be described thus: cAMP assay (HitHunter) in transiently transfected COS-7 cells expressing human GIPR. To be noted: for Emax: COS-7, normalized to highest concentration of the endogenous ligand, read-out: Efficacy GIPR (Emax); for EC50: cAMP, COS-7 cells, human GIPR. The procedure: (§1) The next day the assay was initiated by washing with HEPES buffered saline (HBS) and followed by an incubation step with assay buffer (HBS added 1 mM isobutyl-1-methylxanthine (IBMX)) for 30 min at 37° C. The ligands were then added and incubated for an additional 30 min at 37° C. After ligand incubation, the HitHunter® CAMP assay (Eurofins DiscoverX, Fremont, […] USA) was carried out according to the manufacturer's instructions. […] The potencies (EC50 values) were determined by nonlinear regression using GraphPad Prism 9 (San Diego, California, USA). Sigmoid curves were fitted logistically. The efficacies (Emax values) were determined by normalization to the highest concentration applied of the endogenous ligand for each receptor.

The target in another assay is T2, human GLP-2R (Homo sapiens, UniProt O95838).
T2 construct: host or cells: COS-7
T2 sequence (O95838 1-553): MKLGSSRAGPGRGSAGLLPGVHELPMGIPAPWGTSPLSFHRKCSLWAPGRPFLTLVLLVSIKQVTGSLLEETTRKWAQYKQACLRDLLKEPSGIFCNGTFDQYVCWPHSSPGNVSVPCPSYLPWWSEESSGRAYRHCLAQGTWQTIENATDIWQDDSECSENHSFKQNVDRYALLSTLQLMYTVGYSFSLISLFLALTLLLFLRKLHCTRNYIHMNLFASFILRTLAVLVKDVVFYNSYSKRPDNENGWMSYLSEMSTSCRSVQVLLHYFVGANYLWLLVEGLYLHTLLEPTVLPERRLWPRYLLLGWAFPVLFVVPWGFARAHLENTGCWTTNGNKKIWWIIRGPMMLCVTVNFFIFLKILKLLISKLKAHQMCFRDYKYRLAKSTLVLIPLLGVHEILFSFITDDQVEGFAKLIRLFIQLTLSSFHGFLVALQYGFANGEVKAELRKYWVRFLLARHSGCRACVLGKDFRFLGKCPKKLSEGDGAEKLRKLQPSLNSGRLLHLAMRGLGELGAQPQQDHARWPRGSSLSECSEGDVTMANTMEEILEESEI
The assay is described as follows: cAMP assay (HitHunter) in transiently transfected COS-7 cells expressing human GLP-2R. Conditions: COS-7; normalized to highest concentration of the endogenous ligand; read-out: Efficacy GLP-2R (Emax). The procedure:
as §1

In another assay the target is T3, human GLP-1R (Homo sapiens, UniProt P43220).
T3 construct: host or cells: COS-7
T3 sequence (P43220 24-463): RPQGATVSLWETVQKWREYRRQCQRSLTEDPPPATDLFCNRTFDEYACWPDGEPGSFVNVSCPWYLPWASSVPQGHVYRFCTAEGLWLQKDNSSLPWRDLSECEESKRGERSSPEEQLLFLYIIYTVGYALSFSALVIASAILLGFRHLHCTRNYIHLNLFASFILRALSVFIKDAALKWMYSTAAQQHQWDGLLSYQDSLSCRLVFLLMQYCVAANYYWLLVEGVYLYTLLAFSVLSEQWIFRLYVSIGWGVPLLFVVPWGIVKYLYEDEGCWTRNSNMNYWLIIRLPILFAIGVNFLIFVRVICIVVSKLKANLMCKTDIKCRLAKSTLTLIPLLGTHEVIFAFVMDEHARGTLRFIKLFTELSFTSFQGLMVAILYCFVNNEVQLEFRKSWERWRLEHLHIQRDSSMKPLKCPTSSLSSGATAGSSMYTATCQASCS
The assay is described as follows: cAMP assay (HitHunter) in transiently transfected COS-7 cells expressing human GLP-1R. To be noted: for Emax: COS-7, normalized to highest concentration of the endogenous ligand, read-out: Efficacy GLP-1R (Emax); for EC50: cAMP, COS-7 cells, human GLP-1R, read-out: EC50 (nM) GLP-1R. The procedure:
as §1

Each structure is given as a SMILES string. Where a SMILES comes first, the peptide text is derived from it. [ ]: non-standard residue; d: D form. The star is where a group is joined. Decanoyl = CCCCCCCCCC(=O)*; Aib = CC(C)(N)C(=O)O

`CCCCCCCCCC(=O)NCCCC[C@H](NC(=O)[C@@H](NC(=O)[C@@H](NC(=O)[C@H](CCCCN)NC(=O)[C@@H](NC(=O)[C@H](CCC(N)=O)NC(=O)[C@@H](NC(=O)[C@H](CC(C)C)NC(=O)[C@H](Cc1c[nH]c2ccccc12)NC(=O)[C@H](CC(N)=O)NC(=O)[C@@H](NC(=O)[C@H](Cc1ccccc1)NC(=O)[C@H](CC(=O)O)NC(=O)[C@H](CCCNC(=N)N)NC(=O)[C@H](C)NC(=O)[C@H](C)NC(=O)[C@H](CC(C)C)NC(=O)[C@H](CC(N)=O)NC(=O)[C@H](CC(=O)O)NC(=O)[C@H](CC(C)C)NC(=O)[C@@H](NC(=O)[C@@H](NC(=O)[C@H](CO)NC(=O)[C@H](Cc1ccc(O)cc1)NC(=O)[C@H](CC(=O)O)NC(=O)[C@H](CO)NC(=O)[C@@H](NC(=O)[C@H](Cc1ccccc1)NC(=O)[C@@H](NC(=O)CNC(=O)[C@H](CC(=O)O)NC(=O)C(C)(C)NC(=O)[C@@H](N)Cc1c[nH]cn1)[C@@H](C)O)[C@@H](C)CC)[C@@H](C)O)[C@@H](C)CC)[C@@H](C)CC)[C@@H](C)CC)[C@@H](C)O)[C@@H](C)CC)[C@@H](C)O)C(N)=O` (single isomer, unassigned) [Compound 6]: the Emax at human GIPR came out at 97%; on human GLP-2R, 99%; at human GLP-1R it was 96%.
Take `CCCCCCCCCC(=O)NCCCC[C@H](NC(=O)[C@@H](NC(=O)[C@@H](NC(=O)[C@H](CCCCN)NC(=O)[C@@H](NC(=O)[C@H](CCC(N)=O)NC(=O)[C@@H](NC(=O)[C@H](CC(C)C)NC(=O)[C@H](Cc1c[nH]c2ccccc12)NC(=O)[C@H](CC(N)=O)NC(=O)[C@@H](NC(=O)[C@H](Cc1ccccc1)NC(=O)[C@H](CC(=O)O)NC(=O)[C@H](CCCNC(=N)N)NC(=O)[C@H](C)NC(=O)[C@H](C)NC(=O)[C@H](CC(C)C)NC(=O)[C@H](CC(N)=O)NC(=O)[C@H](CC(=O)O)NC(=O)[C@H](CC(C)C)NC(=O)[C@@H](NC(=O)[C@@H](NC(=O)[C@H](C)NC(=O)[C@H](Cc1ccc(O)cc1)NC(=O)[C@H](CC(=O)O)NC(=O)[C@H](CO)NC(=O)[C@@H](NC(=O)[C@H](Cc1ccccc1)NC(=O)[C@@H](NC(=O)CNC(=O)[C@H](CC(=O)O)NC(=O)C(C)(C)NC(=O)[C@@H](N)Cc1c[nH]cn1)[C@@H](C)O)[C@@H](C)CC)[C@@H](C)O)[C@@H](C)CC)[C@@H](C)CC)[C@@H](C)CC)[C@@H](C)O)[C@@H](C)CC)[C@@H](C)O)C(=O)O` [Compound 3] (H-H[Aib]DGTFISDYATILDNLAARDFINWLIQTKITK(Decanoyl)-OH; N-terminus assumed): the Emax on human GIPR was 80%; on human GLP-2R it was 101%; at human GLP-1R, 94%. Besides, the values for the EC50 at human GIPR and at human GLP-1R were 0.631 nM and 1.78 nM, respectively.
The matching figures for `CCCCCCCCCC(=O)NCCCC[C@H](NC(=O)[C@@H](NC(=O)[C@@H](NC(=O)[C@H](CCCCN)NC(=O)[C@@H](NC(=O)[C@H](CCC(N)=O)NC(=O)[C@@H](NC(=O)[C@H](CC(C)C)NC(=O)[C@H](Cc1c[nH]c2ccccc12)NC(=O)[C@H](CC(N)=O)NC(=O)[C@@H](NC(=O)[C@H](Cc1ccccc1)NC(=O)[C@H](CC(=O)O)NC(=O)[C@H](CCCNC(=N)N)NC(=O)[C@H](C)NC(=O)[C@H](C)NC(=O)[C@H](CC(C)C)NC(=O)[C@H](CC(C)C)NC(=O)[C@H](CC(=O)O)NC(=O)[C@H](CC(C)C)NC(=O)[C@@H](NC(=O)[C@@H](NC(=O)[C@H](CO)NC(=O)[C@H](Cc1ccc(O)cc1)NC(=O)[C@H](CC(=O)O)NC(=O)[C@H](CO)NC(=O)[C@@H](NC(=O)[C@H](Cc1ccccc1)NC(=O)[C@@H](NC(=O)CNC(=O)[C@H](CC(=O)O)NC(=O)C(C)(C)NC(=O)[C@@H](N)Cc1c[nH]cn1)[C@@H](C)O)[C@@H](C)CC)[C@@H](C)O)[C@@H](C)CC)[C@@H](C)CC)[C@@H](C)CC)[C@@H](C)O)[C@@H](C)CC)[C@@H](C)O)C(N)=O` [Compound 4] (H-H[Aib]DGTFISDYSTILDLLAARDFINWLIQTKITK(Decanoyl)-NH2): 102%, 92%, 82%, 1.12 nM and 25.1 nM.
In the case of `CCCCCCCCCC(=O)NCCCC[C@H](NC(=O)[C@@H](NC(=O)[C@@H](NC(=O)[C@H](CCCCN)NC(=O)[C@@H](NC(=O)[C@H](CCC(N)=O)NC(=O)[C@@H](NC(=O)[C@H](CC(C)C)NC(=O)[C@H](Cc1c[nH]c2ccccc12)NC(=O)[C@H](CC(N)=O)NC(=O)[C@@H](NC(=O)[C@H](Cc1ccccc1)NC(=O)[C@H](CCC(=O)O)NC(=O)[C@H](CCCNC(=N)N)NC(=O)[C@H](C)NC(=O)[C@H](C)NC(=O)[C@H](CC(C)C)NC(=O)[C@H](CC(N)=O)NC(=O)[C@H](CC(=O)O)NC(=O)[C@H](CC(C)C)NC(=O)[C@@H](NC(=O)[C@@H](NC(=O)[C@H](CO)NC(=O)[C@H](Cc1ccc(O)cc1)NC(=O)[C@H](CC(=O)O)NC(=O)[C@H](CO)NC(=O)[C@@H](NC(=O)[C@H](Cc1ccccc1)NC(=O)[C@@H](NC(=O)CNC(=O)[C@H](CC(=O)O)NC(=O)C(C)(C)NC(=O)[C@@H](N)Cc1c[nH]cn1)[C@@H](C)O)[C@@H](C)CC)[C@@H](C)O)[C@@H](C)CC)[C@@H](C)CC)[C@@H](C)CC)[C@@H](C)O)[C@@H](C)CC)[C@@H](C)O)C(N)=O` [Compound 8] (H-H[Aib]DGTFISDYSTILDNLAAREFINWLIQTKITK(Decanoyl)-NH2; N-terminus assumed), at human GIPR, the Emax is 99% and the midpoint of the response, the EC50, lay at 1.12 nM. Besides, the Emax on human GLP-1R came to 98%.
The matching figures for `CCCCCCCCCC(=O)NCCCC[C@H](NC(=O)[C@@H](NC(=O)[C@@H](NC(=O)[C@H](CCCCN)NC(=O)[C@@H](NC(=O)[C@H](CCC(N)=O)NC(=O)[C@@H](NC(=O)[C@H](CC(C)C)NC(=O)[C@H](Cc1c[nH]c2ccccc12)NC(=O)[C@H](CC(N)=O)NC(=O)[C@@H](NC(=O)[C@H](Cc1ccccc1)NC(=O)[C@H](CC(=O)O)NC(=O)[C@H](CCCNC(=N)N)NC(=O)[C@H](C)NC(=O)[C@H](C)NC(=O)[C@@H](NC(=O)[C@H](CC(N)=O)NC(=O)[C@H](CC(=O)O)NC(=O)[C@H](CC(C)C)NC(=O)[C@@H](NC(=O)[C@@H](NC(=O)[C@H](CO)NC(=O)[C@H](Cc1ccc(O)cc1)NC(=O)[C@H](CC(=O)O)NC(=O)[C@H](CO)NC(=O)[C@@H](NC(=O)[C@H](Cc1ccccc1)NC(=O)[C@@H](NC(=O)CNC(=O)[C@H](CC(=O)O)NC(=O)C(C)(C)NC(=O)[C@@H](N)Cc1c[nH]cn1)[C@@H](C)O)[C@@H](C)CC)[C@@H](C)O)[C@@H](C)CC)[C@@H](C)CC)[C@@H](C)CC)[C@@H](C)CC)[C@@H](C)O)[C@@H](C)CC)[C@@H](C)O)C(N)=O` [Compound 15] (H-H[Aib]DGTFISDYSTILDNIAARDFINWLIQTKITK(Decanoyl)-NH2; N-terminus assumed): 98%, 0.794 nM and 90%.
